Values quoted from earlier work in patent publication US20230349886A1, “SYSTEMS AND METHODS FOR PREDICTING CARDIOTOXICITY OF MOLECULAR PARAMETERS OF A COMPOUND BASED ON MACHINE LEARNING ALGORITHMS” (UTI Limited Partnership, priority 2015, published 2023).
Like-named read-outs stand apart in the source and are kept apart here. One block for each compound: values may come before it. Peptide text beside a SMILES is read from it.

Legend:
[1] = target: T1, Nav1.5 (Homo sapiens, UniProt Q14524); details: Nav1.5 training/test/validation set; 92 actives and 860 inactive compounds; 1 = active
[2] = target: Cav1.2 (Homo sapiens, UniProt Q13936); details: for CAV1p2-maxinhib: maximal inhibition
Sequence of Cav1.2 (Q13936 1-2138 isoform Q13936-12): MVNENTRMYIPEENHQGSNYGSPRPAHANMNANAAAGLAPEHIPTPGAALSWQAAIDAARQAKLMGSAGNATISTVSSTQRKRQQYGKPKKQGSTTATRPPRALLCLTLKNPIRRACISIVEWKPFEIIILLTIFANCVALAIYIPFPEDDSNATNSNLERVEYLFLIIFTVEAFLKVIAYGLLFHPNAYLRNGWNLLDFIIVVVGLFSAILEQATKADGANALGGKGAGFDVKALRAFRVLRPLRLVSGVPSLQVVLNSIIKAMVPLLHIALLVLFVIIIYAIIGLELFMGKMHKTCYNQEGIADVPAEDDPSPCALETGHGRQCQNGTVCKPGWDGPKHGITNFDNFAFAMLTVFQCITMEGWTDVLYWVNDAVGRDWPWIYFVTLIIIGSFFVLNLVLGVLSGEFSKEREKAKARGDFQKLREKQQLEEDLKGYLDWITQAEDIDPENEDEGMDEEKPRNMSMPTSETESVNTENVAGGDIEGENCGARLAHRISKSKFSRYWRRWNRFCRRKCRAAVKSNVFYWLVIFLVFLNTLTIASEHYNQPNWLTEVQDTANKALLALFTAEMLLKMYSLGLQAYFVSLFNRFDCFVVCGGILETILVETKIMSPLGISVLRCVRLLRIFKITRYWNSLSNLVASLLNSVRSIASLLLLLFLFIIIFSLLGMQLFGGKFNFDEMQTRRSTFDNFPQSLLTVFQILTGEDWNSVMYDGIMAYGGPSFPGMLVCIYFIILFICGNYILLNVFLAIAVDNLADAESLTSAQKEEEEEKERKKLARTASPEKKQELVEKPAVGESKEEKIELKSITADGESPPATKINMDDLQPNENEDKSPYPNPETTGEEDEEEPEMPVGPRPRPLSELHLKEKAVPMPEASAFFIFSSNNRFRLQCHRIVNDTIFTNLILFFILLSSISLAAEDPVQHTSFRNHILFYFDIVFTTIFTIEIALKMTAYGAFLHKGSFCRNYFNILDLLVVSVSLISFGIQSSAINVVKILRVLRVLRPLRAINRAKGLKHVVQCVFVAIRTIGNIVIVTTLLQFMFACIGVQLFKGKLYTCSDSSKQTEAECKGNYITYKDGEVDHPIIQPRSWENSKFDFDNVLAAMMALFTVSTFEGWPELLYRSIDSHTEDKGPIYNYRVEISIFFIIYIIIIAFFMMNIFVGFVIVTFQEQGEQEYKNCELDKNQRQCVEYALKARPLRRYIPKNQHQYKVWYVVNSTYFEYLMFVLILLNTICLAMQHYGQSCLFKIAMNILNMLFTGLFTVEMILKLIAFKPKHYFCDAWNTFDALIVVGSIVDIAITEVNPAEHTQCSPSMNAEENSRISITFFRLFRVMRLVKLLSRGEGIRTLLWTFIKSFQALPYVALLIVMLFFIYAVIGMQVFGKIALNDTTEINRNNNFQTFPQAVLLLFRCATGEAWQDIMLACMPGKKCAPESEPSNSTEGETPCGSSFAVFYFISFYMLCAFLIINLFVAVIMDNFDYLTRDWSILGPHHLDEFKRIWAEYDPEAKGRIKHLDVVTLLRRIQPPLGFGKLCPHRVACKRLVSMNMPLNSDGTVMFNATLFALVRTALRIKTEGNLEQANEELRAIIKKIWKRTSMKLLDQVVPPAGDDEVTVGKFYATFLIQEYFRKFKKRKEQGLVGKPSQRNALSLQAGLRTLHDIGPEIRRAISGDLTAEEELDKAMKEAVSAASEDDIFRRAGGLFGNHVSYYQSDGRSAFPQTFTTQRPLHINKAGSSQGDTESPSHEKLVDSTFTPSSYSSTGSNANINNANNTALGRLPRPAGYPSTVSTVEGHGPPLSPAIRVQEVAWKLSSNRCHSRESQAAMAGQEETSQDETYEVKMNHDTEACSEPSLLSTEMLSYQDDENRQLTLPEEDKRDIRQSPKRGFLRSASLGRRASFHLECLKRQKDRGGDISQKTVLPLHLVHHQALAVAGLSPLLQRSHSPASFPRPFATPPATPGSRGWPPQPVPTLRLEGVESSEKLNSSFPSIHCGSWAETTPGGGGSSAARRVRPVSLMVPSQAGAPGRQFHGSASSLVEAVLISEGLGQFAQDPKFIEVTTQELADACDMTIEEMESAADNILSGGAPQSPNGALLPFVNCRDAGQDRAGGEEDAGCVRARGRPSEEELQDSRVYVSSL
Sequence of Cav1.2 (Q08289 whole entry partner): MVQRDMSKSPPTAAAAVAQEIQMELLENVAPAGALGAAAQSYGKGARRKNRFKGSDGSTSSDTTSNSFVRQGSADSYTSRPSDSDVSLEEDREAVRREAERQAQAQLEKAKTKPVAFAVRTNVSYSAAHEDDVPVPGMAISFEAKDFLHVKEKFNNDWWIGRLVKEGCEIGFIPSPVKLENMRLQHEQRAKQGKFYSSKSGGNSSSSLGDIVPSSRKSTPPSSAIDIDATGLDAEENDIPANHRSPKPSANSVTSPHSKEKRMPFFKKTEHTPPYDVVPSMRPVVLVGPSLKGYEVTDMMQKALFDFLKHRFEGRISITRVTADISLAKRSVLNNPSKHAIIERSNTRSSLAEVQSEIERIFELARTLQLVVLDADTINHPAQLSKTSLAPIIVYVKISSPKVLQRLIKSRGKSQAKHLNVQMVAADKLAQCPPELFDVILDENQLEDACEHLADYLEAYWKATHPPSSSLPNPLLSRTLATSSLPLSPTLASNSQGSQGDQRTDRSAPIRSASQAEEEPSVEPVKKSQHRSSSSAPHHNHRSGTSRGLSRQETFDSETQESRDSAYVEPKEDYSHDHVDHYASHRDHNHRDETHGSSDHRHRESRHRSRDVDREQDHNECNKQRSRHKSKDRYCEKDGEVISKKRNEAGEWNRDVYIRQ
Sequence of Cav1.2 (P54289 25-946 partner limits assumed): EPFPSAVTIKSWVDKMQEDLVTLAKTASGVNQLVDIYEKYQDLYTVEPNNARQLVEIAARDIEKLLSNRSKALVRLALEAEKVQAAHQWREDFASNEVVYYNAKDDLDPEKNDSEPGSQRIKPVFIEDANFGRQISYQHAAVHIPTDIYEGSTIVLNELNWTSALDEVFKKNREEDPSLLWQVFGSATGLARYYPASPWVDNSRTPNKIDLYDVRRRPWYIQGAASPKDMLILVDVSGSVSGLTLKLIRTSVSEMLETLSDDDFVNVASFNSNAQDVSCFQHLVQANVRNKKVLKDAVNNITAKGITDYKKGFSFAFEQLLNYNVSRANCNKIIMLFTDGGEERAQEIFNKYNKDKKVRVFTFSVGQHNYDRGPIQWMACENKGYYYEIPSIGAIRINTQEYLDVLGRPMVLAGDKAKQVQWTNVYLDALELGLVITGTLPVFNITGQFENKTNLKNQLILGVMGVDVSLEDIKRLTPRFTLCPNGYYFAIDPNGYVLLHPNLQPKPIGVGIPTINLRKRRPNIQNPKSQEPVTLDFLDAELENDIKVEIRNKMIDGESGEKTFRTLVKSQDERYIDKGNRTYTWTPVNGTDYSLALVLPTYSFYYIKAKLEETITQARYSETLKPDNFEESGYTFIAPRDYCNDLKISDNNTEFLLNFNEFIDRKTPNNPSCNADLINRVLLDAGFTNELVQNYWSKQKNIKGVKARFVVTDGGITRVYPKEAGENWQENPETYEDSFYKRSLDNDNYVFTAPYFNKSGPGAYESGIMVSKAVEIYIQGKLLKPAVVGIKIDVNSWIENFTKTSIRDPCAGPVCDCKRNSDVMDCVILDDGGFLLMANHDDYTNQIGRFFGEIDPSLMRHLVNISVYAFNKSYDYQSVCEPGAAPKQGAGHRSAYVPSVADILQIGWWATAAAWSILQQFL
Sequence of Cav1.2 (P54289 947-1103 partner limits assumed): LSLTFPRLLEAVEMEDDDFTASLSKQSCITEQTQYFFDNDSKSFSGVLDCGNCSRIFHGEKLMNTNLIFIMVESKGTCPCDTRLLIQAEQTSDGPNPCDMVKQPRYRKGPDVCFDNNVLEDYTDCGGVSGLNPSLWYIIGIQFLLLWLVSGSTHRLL

[3] = target: T1, Nav1.5
[4] = target: Nav1.5 (Homo sapiens, UniProt Q14524, S234P/V215L)
[5] = Brown dataset; flag given as 1 or 0
[6] = for Free drug: experimental data file, Kramer et al. 2013
[7] = target: hERG (Homo sapiens, UniProt Q12809)
Sequence of hERG (Q12809 whole entry): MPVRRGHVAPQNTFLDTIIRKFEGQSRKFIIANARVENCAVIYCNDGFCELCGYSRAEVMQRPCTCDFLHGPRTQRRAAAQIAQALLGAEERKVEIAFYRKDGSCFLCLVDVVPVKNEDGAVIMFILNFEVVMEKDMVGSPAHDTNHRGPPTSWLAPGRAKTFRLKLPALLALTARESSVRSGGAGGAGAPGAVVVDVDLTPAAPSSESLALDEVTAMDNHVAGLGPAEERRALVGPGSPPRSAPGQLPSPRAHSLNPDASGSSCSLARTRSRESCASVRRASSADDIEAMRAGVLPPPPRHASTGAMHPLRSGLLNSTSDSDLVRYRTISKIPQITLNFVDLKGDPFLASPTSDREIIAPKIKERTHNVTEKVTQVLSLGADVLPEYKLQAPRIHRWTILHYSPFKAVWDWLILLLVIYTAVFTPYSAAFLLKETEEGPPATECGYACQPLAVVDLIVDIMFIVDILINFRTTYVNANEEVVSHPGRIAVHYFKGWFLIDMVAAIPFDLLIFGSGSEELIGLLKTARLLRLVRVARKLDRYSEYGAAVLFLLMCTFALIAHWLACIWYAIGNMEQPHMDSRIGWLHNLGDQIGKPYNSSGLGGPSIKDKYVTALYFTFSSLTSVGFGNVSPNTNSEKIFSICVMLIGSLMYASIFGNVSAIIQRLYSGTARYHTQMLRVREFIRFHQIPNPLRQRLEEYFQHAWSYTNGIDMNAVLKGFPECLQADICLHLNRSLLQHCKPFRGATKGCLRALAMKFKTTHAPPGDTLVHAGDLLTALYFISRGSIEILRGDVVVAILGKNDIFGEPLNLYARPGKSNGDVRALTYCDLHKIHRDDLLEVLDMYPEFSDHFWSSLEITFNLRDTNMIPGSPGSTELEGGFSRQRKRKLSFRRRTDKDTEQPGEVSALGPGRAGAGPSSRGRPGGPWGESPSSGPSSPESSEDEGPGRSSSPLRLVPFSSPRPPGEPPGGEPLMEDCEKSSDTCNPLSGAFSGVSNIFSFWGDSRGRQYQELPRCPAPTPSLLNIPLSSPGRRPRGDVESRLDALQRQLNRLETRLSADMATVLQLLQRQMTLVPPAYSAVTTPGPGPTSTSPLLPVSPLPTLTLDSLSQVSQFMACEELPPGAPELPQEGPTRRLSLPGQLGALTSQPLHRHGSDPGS

[8] = read-out: CAV1.2 IC50, Brown dataset
[9] = read-out: NAV1.5 IC50, Brown dataset
[10] = Brown dataset, negative log of free drug concentration
[11] = experimental data, Kramer et al. 2013
[12] = maximal inhibition, Kramer et al. 2013

SMILES: NC(=S)Nc1cccc(OCCCCCN2CCN(c3ccccc3-c3ccccc3)C2=S)c1 [CHEMBL569085]
activity [1]: Found 92 actives and 860 inactive compounds. 952 CHEMBL569085 1

SMILES: CCCCCCCN(CC)CCCC(O)c1ccc(NS(C)(=O)=O)cc1 (stereo not drawn) [ibutilide]
CAV1.2 max inhib ([2]; Brown dataset): 85.2 | CAV1.2 pIC50 ([2]; Brown dataset): 4.2041 | IC50 [2, 8]: 62.5 µM | NAV1.5 max inhib ([3]; Brown dataset): 87.9 | IC50 [3, 9]: 42.5 µM | NAV1.5 pIC50 ([4]; Brown dataset): 4.3716 | Ris (TdP risk flag) [5]: 1 | Free drug concentration ([6]; Brown dataset): 0.14 µM | pFD [6, 10]: 6.853

SMILES: O=C(O)CCCCCC/C=C/CO [CHEMBL458520]
activity [1]: 1

SMILES: CC(C)[C@H](NC(=O)CN)C(=O)N[C@@H](CCC(N)=O)C(=O)O [CHEMBL123454] (H-Gly-Val-Gln-OH)
activity [1]: 1

SMILES: CCCCCC=C(c1cc(C)c(OC)c(C(=O)OC)c1)c1cc(C)c(OC)c(C(=O)OC)c1 [CHEMBL335768]
activity [1]: 1

SMILES: CO/N=C(\C(=O)N[C@@H]1C(=O)N2C(C(=O)O)=C(CSc3nc(=O)c(=O)[nH]n3C)CS[C@H]12)c1csc(N)n1 [ceftriaxone]
HERG maxInhib ([7]; Brown dataset): 7.5 | pIC50 ([7]; Table 11, calculated from HERG-IC50 of the Kramer et al. 2013 data): 3.351 | HERG-pIC50 [7, 11]: 3.351 | HERG-maxinhib [7, 12]: 7.5 | IC50 ([7]; read-out: HERG IC50, Brown dataset): 445 µM | IC50 ([7]; read-out: HERG-IC50, experimental data, Kramer et al. 2013): 446 µM | CAV1.2 max inhib ([2]; Brown dataset): 38.8 | CAV1p2-pIC50 [2, 11]: 3.813 | CAV1p2-maxinhib ([2]; Kramer et al. 2013): 38.8 | IC50 ([2]; read-out: CAV1p2-IC50, experimental data, Kramer et al. 2013): 154 µM | IC50 [2, 8]: 154 µM | NAV1.5 max inhib ([3]; Brown dataset): 14.3 | NAV1p5-pIC50 [3, 11]: 3.255 | NAV1p5-maxinhib [3, 12]: 14.3 | IC50 ([3]; read-out: NAV1p5-IC50, experimental data, Kramer et al. 2013): 556 µM | IC50 [3, 9]: 555 µM | Ris (TdP risk flag) [5]: 0 | Free drug [6]: 23.17 µM | pFD ([6]; negative log of free drug): 4.635

SMILES: Cc1nc2n(c(=O)c1CCN1CCC(c3noc4cc(F)ccc34)CC1)CCCC2 [risperidone]
HERG maxInhib ([7]; Brown dataset): 79.7 | Ris (TdP risk flag) [5]: 1 | Free drug concentration ([6]; Brown dataset): 0.00 µM

SMILES: CCCCCC=C(c1cc(Cl)c(OC)c(C(=O)O)c1)c1cc(Cl)c(OC)c(C(=O)O)c1 [CHEMBL111622]
activity [1]: 1

Second part, led by results:

Ris (TdP risk flag) [5]: 1
SMILES: Fc1ccc([C@@H]2CCNC[C@H]2COc2ccc3c(c2)OCO3)cc1 [paroxetine]
HERG maxInhib ([7]; Brown dataset): 99.5 | CAV1.2 max inhib [2]: 98.5 | CAV1.2 pIC50 [2]: 5.409 393 | IC50 [2]: 3.9 µM | IC50 [3]: 9.8 µM | NAV1.5 max inhib [3]: 93.7 | NAV1.5 pIC50 [4]: 5.009 924

Ris (TdP risk flag) [5]: 1 | Free drug [6]: 0.035 µM | pFD ([6]; negative log of free drug): 7.456
SMILES: CC(C)COCC(CN(Cc1ccccc1)c1ccccc1)N1CCCC1 (stereo not drawn) [bepridil]
CAV1.2 max inhib ([2]; Brown dataset): 95.7 | CAV1p2-maxinhib ([2]; Kramer et al. 2013): 95.7 | IC50 [3]: 2.3 µM | NAV1p5-maxinhib [3]: 100 | NAV1p5-pIC50 [3]: 5.638 | NAV1.5 max inhib [3]: 100 | NAV1.5 pIC50 [4]: 5.6382 164

Ris (TdP risk flag) [5]: 0 | Free drug concentration ([6]; Brown dataset): 4.36 µM
SMILES: O=C1NC(=O)C(c2ccccc2)(c2ccccc2)N1 [phenytoin]
HERG maxInhib [7]: 16.4 | CAV1.2 max inhib ([2]; Brown dataset): 91.7 | IC50 [2, 8]: 21.9 µM | NAV1.5 max inhib ([3]; Brown dataset): 59.3 | IC50 [3, 9]: 72.4 µM

Ris (TdP risk flag) [5]: 0 | pFD [6, 10]: 1.387 ^-1614
SMILES: Cc1nc(Nc2ncc(C(=O)Nc3c(C)cccc3Cl)s2)cc(N2CCN(CCO)CC2)n1 [dasatinib]
HERG maxInhib ([7]; Brown dataset): 86.6 | CAV1.2 max inhib ([2]; Brown dataset): 52.2 | NAV1.5 max inhib ([3]; Brown dataset): 58.9
